Converted amounts (≈) assume the structure as drawn.
Experiments:
Assay type in all cases: functional
Staphylococcus aureus [1] = experiment: Antibacterial activity against multi drug-resistant Staphylococcus aureus 1199B after 18 hrs by MTT assay
Staphylococcus aureus [2] = experiment: Antibacterial activity against epidemic methicillin-resistant Staphylococcus aureus 15 after 18 hrs by MTT assay; settings: Staphylococcus aureus, 15, 18 h
Staphylococcus aureus [3] = experiment: Antibacterial activity against Staphylococcus aureus ATCC […] after 18 hrs by MTT assay
Staphylococcus aureus [4] = experiment: Antibacterial activity against multi drug-resistant Staphylococcus aureus XU212 after 18 hrs by MTT assay; settings: XU212, 18 h
Staphylococcus aureus [5] = experiment: Antibacterial activity against epidemic methicillin-resistant Staphylococcus aureus 16 after 18 hrs by MTT assay; settings: Staphylococcus aureus, 16, 18 h
Staphylococcus aureus [6] = experiment: Antibacterial activity against erythromycin-resistant Staphylococcus aureus RN4220 after 18 hrs by MTT assay; settings: RN4220, 18 h

Compound: COc1cc(O)c(C(=O)CC(C)C)c(O)c1C [ASPIDINOL C]
- MIC (Staphylococcus aureus [1]): 2 µg/mL (≈ 8.39 µM)
- MIC (Staphylococcus aureus [2]): 8 µg/mL (≈ 33.6 µM)
- MIC (Staphylococcus aureus [3]): 8 µg/mL (≈ 33.6 µM)
- MIC (Staphylococcus aureus [4]): 32 µg/mL (≈ 134 µM)
- MIC (Staphylococcus aureus [5]): 4 µg/mL (≈ 16.8 µM)
- MIC (Staphylococcus aureus [6]): 16 µg/mL (≈ 67.1 µM)

Compound: CCC(C)C(=O)c1c(O)cc(OC)c(C)c1O (stereo not drawn) [ASPIDINOL D]
- MIC (Staphylococcus aureus [1]): 4 µg/mL (≈ 16.8 µM)
- MIC (Staphylococcus aureus [2]): 4 µg/mL (≈ 16.8 µM)
- MIC (Staphylococcus aureus [3]): 8 µg/mL (≈ 33.6 µM)
- MIC (Staphylococcus aureus [4]): 8 µg/mL (≈ 33.6 µM)
- MIC (Staphylococcus aureus [5]): 4 µg/mL (≈ 16.8 µM)
- MIC (Staphylococcus aureus [6]): 8 µg/mL (≈ 33.6 µM)

Compound: CCn1cc(C(=O)O)c(=O)c2cc(F)c(N3CCNCC3)cc21 [NORFLOXACIN]
- MIC (Staphylococcus aureus [1]): 32 µg/mL (≈ 100 µM)
- MIC (Staphylococcus aureus [2]): 0.5 µg/mL (≈ 1.57 µM)
- MIC (Staphylococcus aureus [3]): 0.5 µg/mL (≈ 1.57 µM)
- MIC (Staphylococcus aureus [4]): 8 µg/mL (≈ 25.1 µM)
- MIC (Staphylococcus aureus [5]): 128 µg/mL (≈ 401 µM)
- MIC (Staphylococcus aureus [6]): 0.5 µg/mL (≈ 1.57 µM)
